# Data as given in US20100099670A1, “Benzoquinazoline derivatives” (priority 2007, published 2010).
# pIC50: −log10 of the molar value.
# Target: T1, human PcaR (Homo sapiens, UniProt P41180)
# T1 construct: expressed in transfected cells; host or cells: CCL39 fibroblasts (hamster lung fibroblast line), stably transfected
# T1 sequence (P41180 20-1078): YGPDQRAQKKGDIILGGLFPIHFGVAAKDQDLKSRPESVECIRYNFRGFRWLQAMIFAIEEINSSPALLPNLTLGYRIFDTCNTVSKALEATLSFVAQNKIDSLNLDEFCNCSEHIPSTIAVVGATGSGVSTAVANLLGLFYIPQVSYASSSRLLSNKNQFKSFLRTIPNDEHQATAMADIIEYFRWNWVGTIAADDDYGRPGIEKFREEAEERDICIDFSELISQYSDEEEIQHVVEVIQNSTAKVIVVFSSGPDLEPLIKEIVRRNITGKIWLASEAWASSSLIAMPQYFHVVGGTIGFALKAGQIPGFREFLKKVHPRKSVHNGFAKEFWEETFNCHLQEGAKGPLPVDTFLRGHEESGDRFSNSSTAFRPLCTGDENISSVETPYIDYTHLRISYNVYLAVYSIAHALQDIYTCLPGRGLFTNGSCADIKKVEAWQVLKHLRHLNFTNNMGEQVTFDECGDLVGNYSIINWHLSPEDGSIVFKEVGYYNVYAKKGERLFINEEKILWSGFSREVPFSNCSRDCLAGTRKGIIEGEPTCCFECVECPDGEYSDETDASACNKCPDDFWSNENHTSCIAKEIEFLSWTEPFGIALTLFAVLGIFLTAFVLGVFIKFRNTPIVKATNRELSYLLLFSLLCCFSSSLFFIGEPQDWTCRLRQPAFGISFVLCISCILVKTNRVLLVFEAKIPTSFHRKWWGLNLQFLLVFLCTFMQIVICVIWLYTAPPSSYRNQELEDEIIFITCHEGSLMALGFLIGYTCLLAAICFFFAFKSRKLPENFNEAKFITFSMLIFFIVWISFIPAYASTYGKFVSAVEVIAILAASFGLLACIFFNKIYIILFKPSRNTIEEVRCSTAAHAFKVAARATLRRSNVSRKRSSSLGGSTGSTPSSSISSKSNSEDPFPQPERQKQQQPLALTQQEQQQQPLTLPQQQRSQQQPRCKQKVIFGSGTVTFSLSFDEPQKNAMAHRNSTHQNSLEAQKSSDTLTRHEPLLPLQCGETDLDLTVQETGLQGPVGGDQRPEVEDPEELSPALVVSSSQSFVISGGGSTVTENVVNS
# Assay: Inhibition of intracellular calcium transients stimulated by extracellular calcium (assay for intracellular free calcium)
# Assay type: cell-based
# Conditions: CCL39 fibroblasts stably transfected with human PcaR; Fluo-3 AM; stimulated with calcium 2.5 mM final; read-out: IC50 (nm) (range in which compound fall)
# Description: Inhibition of Intracellular Calcium Transients Stimulated by Extracellular Calcium
# In the test system, which is described in detail below, the following ranges of IC50 values are found:
# Assay for Intracellular Free Calcium:
# A method to determine antagonism at the PcaR consists in measuring the inhibition of intracellular calcium transients stimulated by extracellular calcium.
# CCL39 fibroblasts stably transfected with human PcaR are seeded at 40,000 cells/well into 96-well Viewplates and incubated for 24 hours. Medium is then removed and replaced with fresh medium containing 2 μM Fluo-3 AM (Molecular Probes, Leiden, The Netherlands), In routine experiments, cells are incubated at 37° C., 5% CO2 for 1 h. Afterwards, plates are washed twice with mHBS and wells are refilled with 100 μl mHBS containing the test compounds. Incubation is continued at room temperature for 15 minutes. To record changes of intracellular free calcium, plates are transferred to fluorescence-imaging plate reader (Molecular Devices, Sunnyvale, Calif., USA). A baseline consisting in 5 measurements of 0.4 seconds each (laser excitation 488 nm) is recorded. Cells are then stimulated with calcium (2.5 mM final), and fluorescence changes recorded over a period of 3 minutes.
row,SMILES,pIC50
1,"C#CCOc1ccc2nc(C(=O)c3ccc4c(c3)OCCO4)nc(-c3ccc(C(C)C)cc3)c2c1 [Example 1, (2,3-Dihydro-benzo[1,4]dioxin-6-yl)-[4-(4-isopropyl-phenyl)-6-propargyloxy-quinazolin-2-yl]-methanone]",9.00 to 9.30
2,"C#CCOc1ccc2nc(C(=O)c3ccc4c(c3)OC=CO4)nc(-c3ccc(C(C)C)cc3)c2c1 [Example 4, Benzo[1,4]dioxin-6-yl-[4-(4-isopropyl-phenyl)-6-propargyloxy-quinazolin-2-yl]-methanone]",9.00 to 9.30
3,"C#CCOc1ccc2nc(C(=O)c3ccc4c(c3)CCC4)nc(-c3ccc(C(C)C)cc3)c2c1 [Example 5, Indan-5-yl-[4-(4-isopropyl-phenyl)-6-propargyloxy-quinazolin-2-yl]-methanone]",9.00 to 9.30
4,"C#CCOc1ccc2nc(C(=O)c3ccc4c(c3)C(C)(C)CCC4(C)C)nc(-c3ccc(C(C)C)cc3)c2c1 [Example 9, [4-(4-Isopropyl-phenyl)-6-propargyloxy-quinazolin-2-yl]-(5,5,8,8-tetramethyl-5,6,7,8-tetrahydro-naphthalen-2-yl)-methanone]",8.30 to 9.00
5,"C#CCOc1ccc2nc(C(=O)c3ccc4c(c3)N(C)CCO4)nc(-c3ccc(C(C)C)cc3)c2c1 [Example 10, [4-(4-Isopropyl-phenyl)-6-propargyloxy-quinazolin-2-yl]-(4-methyl-3,4-dihydro-2H-benzo[1,4]oxazin-6-yl)-methanone]",8.30 to 9.00
6,"C#CCOc1ccc2nc(C(=O)c3nc4ccc(OC)cc4s3)nc(-c3ccc(C(C)C)cc3)c2c1 [Example 11, [4-(4-Isopropyl-phenyl)-6-propargyloxy-quinazolin-2-yl]-(6-methoxy-benzo-thiazol-2-yl)-methanone]",8.00 to 8.30
7,"C#CCOc1ccc2nc(C(=O)c3ccc4c(c3)-c3ccccc3C4=O)nc(-c3ccc(C(C)C)cc3)c2c1 [Example 12, 3-[4-(4-Isopropyl-phenyl)-6-propargyloxy-quinazolin-2-carbonyl]-fluoren-9-one]",9.30 to 9.70

# Continued, values first:
row,pIC50,SMILES
1,9.30 to 9.70,"C#CCOc1ccc2nc(C(=O)c3ccc4c(c3)OCO4)nc(-c3ccc(C(C)C)cc3)c2c1 [Example 2, Benzo[1,3]dioxol-5-yl-[4-(4-isopropyl-phenyl)-6-propargyloxy-quinazolin-2-yl]-methanone]"
2,9.30 to 9.70,"C#CCOc1ccc2nc(C(=O)c3ccc4c(c3)CCO4)nc(-c3ccc(C(C)C)cc3)c2c1 [Example 3, (2,3-Dihydro-benzofuran-5-yl)-[4-(4-isopropyl-phenyl)-6-propargyloxy-quinazolin-2-yl]-methanone]"
3,9.30 to 9.70,"C#CCOc1ccc2nc(C(=O)c3ccc4c(c3)OCC4)nc(-c3ccc(C(C)C)cc3)c2c1 [Example 6, (2,3-Dihydro-benzofuran-6-yl)-[4-(4-isopropyl-phenyl)-6-propargyloxy-quinazolin-2-yl]-methanone]"
4,9.30 to 9.70,"C#CCOc1ccc2nc(C(=O)c3ccc4c(c3)OCCN4C)nc(-c3ccc(C(C)C)cc3)c2c1 [Example 7, [4-(4-Isopropyl-phenyl)-6-propargyloxy-quinazolin-2-yl]-(4-methyl-3,4-dihydro-2H-benzo[1,4]oxazin-7-yl)-methanone]"
5,9.30 to 9.70,"C#CCOc1ccc2nc(C(=O)c3ccc4occc4c3)nc(-c3ccc(C(C)C)cc3)c2c1 [Example 8, Benzofuran-5-yl-[4-(4-isopropyl-phenyl)-6-propargyloxy-quinazolin-2-yl]-methanone]"
